Assay [1] has as its system OA articular chondrocytes. The assay is described as follows: Expression of OA chondrocyte phenotype marker genes by RT-qPCR after peptide exposure. The format is cell-based, human. Set-up: key to ADAMTS5 expression: [+] denotes a significantly increased expression of chondrogenic marker BAPX1/NKX3.2 or a decreased expression of OA chondrocyte phenotypic markers ALP, MMP13, ADAMTS5, COX2, COL10A and RUNX2 in OA articular chondrocytes, in comparison to untreated OA articular chondrocytes.; [−] denotes the absence of a significant effort or a significantly decreased expression of chondrogenic marker BAPX1/NKX3.2 or an increased expression of OA chondrocyte phenotypic markers ALP, MMP13, ADAMTS5, COX2, COL10A and RUNX2 in OA articular chondrocytes, in comparison to untreated OA articular chondrocytes. As to conditions: Table 3, N- and C-terminally truncated peptides; vs untreated OA articular chondrocytes. Background: In qPCR the cycle at which signal appears reflects the starting amount.

Assay [2] concerns OA articular chondrocytes. The assay is described as above. It counts as cell-based, human. Set-up: key: [+] denotes a significantly increased expression of chondrogenic marker BAPX1/NKX3.2 or a decreased expression of OA chondrocyte phenotypic markers ALP, MMP13, ADAMTS5, COX2, COL10A and RUNX2 in OA articular chondrocytes, in comparison to untreated OA articular chondrocytes.; [−] denotes the absence of a significant effort or a significantly decreased expression of chondrogenic marker BAPX1/NKX3.2 or an increased expression of OA chondrocyte phenotypic markers ALP, MMP13, ADAMTS5, COX2, COL10A and RUNX2 in OA articular chondrocytes, in comparison to untreated OA articular chondrocytes. As to conditions: Table 3, N- and C-terminally truncated peptides; vs untreated OA articular chondrocytes.

On to “31 (YSEGESAFPLNSYMNATN; homo sapiens) [compound 31]”, for which, in assay [1], the ADAMTS5 expression entry was “+”. Also, in assay [2], the ALP expression entry is “+”, the BAPX1/NKX3.2 expression result is given as “+”, the COL10A expression entry is given as “+” and the COX-2 expression entry is “+”. In assay [2], the MMP13 expression result was “+” and the RUNX2 expression result was “+”.

In the case of “34 (APEGYAAYYSEGESAFPLNSYMNATNHA; homo sapiens) [compound 34]”, the ADAMTS5 expression result in assay [1] was “+”. Besides, in assay [2], the ALP expression entry is recorded as “+”, the BAPX1/NKX3.2 expression entry is listed as “+”, the COL10A expression result is “+” and the COX-2 expression result is given as “+”. Besides, in assay [2], the MMP13 expression result was “+” and the RUNX2 expression entry is “+”.

As for “32 (YSEGESAFPLNSYMNATNH; homo sapiens) [compound 32]”, in assay [1], the ADAMTS5 expression entry is listed as “+”. In assay [2], the ALP expression entry was “+”, the BAPX1/NKX3.2 expression entry is given as “+”, the COL10A expression entry is “+” and the COX-2 expression result was “+”. For the same substance, in assay [2], the MMP13 expression entry is on record as “+” and the RUNX2 expression entry was “+”.

In the case of “33 (YSEGESAFPLNSYMNATNHA; homo sapiens) [compound 33]”, the ADAMTS5 expression entry in assay [1] is reported as “+”. Moreover, in assay [2], the ALP expression entry is reported as “+”, the BAPX1/NKX3.2 expression entry is “+”, the COL10A expression result is “+” and the COX-2 expression result is recorded as “+”. Further, in assay [2], the MMP13 expression result is “+” and the RUNX2 expression entry is “+”.

Consider “18 (PEGYAAYYSEGESAFPLNS; homo sapiens) [compound 18]”, for which the ADAMTS5 expression result in assay [1] is reported as “+”. Also, in assay [2], the ALP expression result is “+”, the BAPX1/NKX3.2 expression result is “+”, the COL10A expression result is given as “+” and the COX-2 expression entry is given as “+”. In addition, in assay [2], the MMP13 expression result was “−” and the RUNX2 expression entry was “+”.

Consider “27 (YSEGESAFPLNSYM; homo sapiens) [compound 27]”, for which the ADAMTS5 expression result in assay [1] is “+”. In assay [2], the ALP expression result was “+”, the BAPX1/NKX3.2 expression entry is recorded as “+”, the COL10A expression result is “+” and the COX-2 expression result is “+”. In assay [2], the MMP13 expression entry is on record as “+” and the RUNX2 expression result is given as “+”.

Take “30 (YSEGESAFPLNSYMNAT; homo sapiens) [compound 30]”: the ADAMTS5 expression entry in assay [1] is on record as “+”. In assay [2], the ALP expression result was “+”, the BAPX1/NKX3.2 expression entry is “+”, the COL10A expression entry is “+” and the COX-2 expression result is “+”. Moreover, in assay [2], the MMP13 expression result is “+” and the RUNX2 expression entry is given as “+”.

Regarding “17 (APEGYAAYYSEGESAFPLNS; homo sapiens) [compound 17]”, the ADAMTS5 expression result in assay [1] is “+”. Also, in assay [2], the ALP expression entry is on record as “+”, the BAPX1/NKX3.2 expression result was “+”, the COL10A expression entry was “+” and the COX-2 expression entry was “+”. In assay [2], the MMP13 expression entry is “−” and the RUNX2 expression result is reported as “+”.

“22 (AAYYSEGESAFPLNS; homo sapiens) [compound 22]”: in assay [1], the ADAMTS5 expression entry is given as “+”. In assay [2], the ALP expression entry is recorded as “+”, the BAPX1/NKX3.2 expression result was “+”, the COL10A expression entry is “+” and the COX-2 expression result was “+”. In assay [2], the MMP13 expression result is listed as “+” and the RUNX2 expression result is “+”.

Regarding “26 (YSEGESAFPLNSY; homo sapiens) [compound 26]”, in assay [1], the ADAMTS5 expression entry is “+”. Besides, in assay [2], the ALP expression result is reported as “+”, the BAPX1/NKX3.2 expression entry is on record as “+”, the COL10A expression result is “+” and the COX-2 expression result is listed as “+”. Moreover, in assay [2], the MMP13 expression result was “+” and the RUNX2 expression entry was “+”.

Regarding “28 (YSEGESAFPLNSYMN; homo sapiens) [compound 28]”, the ADAMTS5 expression result in assay [1] is recorded as “+”. Moreover, in assay [2], the ALP expression result was “+”, the BAPX1/NKX3.2 expression result was “+”, the COL10A expression result was “+” and the COX-2 expression result is given as “+”. For the same substance, in assay [2], the MMP13 expression result is “+” and the RUNX2 expression result is given as “+”.

On to “29 (YSEGESAFPLNSYMNA; homo sapiens) [compound 29]”, for which the ADAMTS5 expression entry in assay [1] is reported as “+”. Moreover, in assay [2], the ALP expression entry is recorded as “+”, the BAPX1/NKX3.2 expression result was “+”, the COL10A expression result is “+” and the COX-2 expression result is on record as “+”. Besides, in assay [2], the MMP13 expression result is “+” and the RUNX2 expression result is on record as “+”.

As for “20 (GYAAYYSEGESAFPLNS; homo sapiens) [compound 20]”, the ADAMTS5 expression result in assay [1] was “+”. Further, in assay [2], the ALP expression entry is recorded as “+”, the BAPX1/NKX3.2 expression result was “+”, the COL10A expression result is listed as “+” and the COX-2 expression entry is “+”. Moreover, in assay [2], the MMP13 expression entry was “+” and the RUNX2 expression result is reported as “+”.

For the substance “35 (PEGYAAYYSEGESAFPLNSYMNATNHA; homo sapiens) [compound 35]”, the ADAMTS5 expression result in assay [1] is recorded as “+”. In assay [2], the ALP expression result is “+”, the BAPX1/NKX3.2 expression entry is recorded as “+”, the COL10A expression entry is recorded as “+” and the COX-2 expression entry is listed as “+”. In addition, in assay [2], the MMP13 expression entry is “+” and the RUNX2 expression result was “+”.

In the case of “19 (EGYAAYYSEGESAFPLNS; homo sapiens) [compound 19]”, the ADAMTS5 expression result in assay [1] is “+”. In addition, in assay [2], the ALP expression entry is recorded as “+”, the BAPX1/NKX3.2 expression result was “+”, the COL10A expression result is recorded as “+” and the COX-2 expression entry is “+”. Further, in assay [2], the MMP13 expression entry is given as “+” and the RUNX2 expression entry is “+”.

With “25 (YSEGESAFPLNS; homo sapiens) [compound 25]”, the ADAMTS5 expression entry in assay [1] is listed as “+”. Moreover, in assay [2], the ALP expression result is “+”, the BAPX1/NKX3.2 expression result is given as “+”, the COL10A expression entry is reported as “+” and the COX-2 expression result is recorded as “+”. Further, in assay [2], the MMP13 expression entry is on record as “+” and the RUNX2 expression entry is reported as “+”.

Consider “21 (YAAYYSEGESAFPLNS; homo sapiens) [compound 21]”, for which the ADAMTS5 expression entry in assay [1] is given as “+”. Moreover, in assay [2], the ALP expression result is listed as “+”, the BAPX1/NKX3.2 expression result is recorded as “+”, the COL10A expression entry is recorded as “+” and the COX-2 expression entry was “+”. In assay [2], the MMP13 expression entry was “+” and the RUNX2 expression result is reported as “+”.

Turning to “23 (AYYSEGESAFPLNS; homo sapiens) [compound 23]”, the ADAMTS5 expression entry in assay [1] is “+”. Further, in assay [2], the ALP expression result was “+”, the BAPX1/NKX3.2 expression result was “+”, the COL10A expression result was “+” and the COX-2 expression entry is listed as “+”. In assay [2], the MMP13 expression entry is reported as “+” and the RUNX2 expression entry is given as “+”.

As for “36 (EGYAAYYSEGESAFPLNSYMNATNHA; homo sapiens) [compound 36]”, the ADAMTS5 expression entry in assay [1] is “+”. In assay [2], the ALP expression result is “+”, the BAPX1/NKX3.2 expression result is “+”, the COL10A expression entry is reported as “+” and the COX-2 expression entry was “+”. For the same substance, in assay [2], the MMP13 expression result is “+” and the RUNX2 expression entry is recorded as “+”.

With “24 (YYSEGESAFPLNS; homo sapiens) [compound 24]”, the ADAMTS5 expression result in assay [1] is “+”. In assay [2], the ALP expression entry is reported as “+”, the BAPX1/NKX3.2 expression result is “+”, the COL10A expression entry is “+” and the COX-2 expression entry was “+”. Moreover, in assay [2], the MMP13 expression result is on record as “+” and the RUNX2 expression result is “+”.

(Values after US20220023386A1, “METHOD FOR THE TREATMENT OR PREVENTION OF OSTEOARTHRITIS” (Chondropeptix B.V., priority 2016, published 2022).)
